Test results from patent publication KR20220022782A, “아모디아퀸 및 아르테수네이트계 약물을 유효성분으로 함유하는 제2형 당뇨병 예방 또는 치료용 약학적 조성물” (priority 2020, dated 2022).

How the values were obtained:
[1] = Cell activity (cytotoxicity) by Cell Count Kit-8 (CCK8), amodiaquine and artesunate; conditions: mouse, c2c12 myoblast cells
[2] = tested on: C2C12 myoblast cell line (C2C12 myoblast 세포주); experiment: in vitro
[3] = tested on: Akt phosphorylation (Akt 인산화); experiment: Akt phosphorylation (western blotting) in palmitic acid-induced insulin-resistant C2C12 myotubes (Example 2); type: cell-based, mouse; conditions: single agent; general statement
[4] = tested on: C2C12 myotube cell line (C2C12 myotube 세포주); experiment: Glucose uptake (2-NBDG, Glucose uptake cell-based assay kit) in palmitic acid-induced insulin-resistant C2C12 myotubes (Example 3); set-up: species or system mouse; conditions: single agent; general statement

| SMILES | viability at 25 µM [1] [%] | cytotoxicity (in words) [2] | improvement of insulin resistance (in words) [3] | promotion of glucose uptake (in words) [4] | viability at 12.5 µM [1] [%] |
| --- | --- | --- | --- | --- | --- |
| CCN(CC)Cc1cc(Nc2ccnc3cc(Cl)ccc23)ccc1O [아모디아퀸, 아모디아퀸(amodiaquine)] | ~80 | 세포 독성이 없음 | 미미한 수준에 불과하다 | 미미한 수준에 불과하다 | – |
| C[C@H]1[C@H](OC(=O)CCC(=O)O)O[C@@H]2O[C@@]3(C)CC[C@H]4[C@H](C)CC[C@@H]1[C@@]24OO3 [아르테수네이트, 아르테수네이트(artesunate)] | – | 세포 독성이 없음 | – | – | ~80 |
